# Experiment: Fine particle fraction by Next Generation Impactor at 15 LPM (nebulizer solution)
# Assay type: physicochemical
# Conditions: Example 6: nebulizer solution, 0.125% w/w palonosetron chloride in sodium chloride/citrate buffer
# Source text: For a nebulizer solution for inhalation, a 0.125% w/w solution of palonosetron chloride is formulated in a pharmaceutically acceptable buffer for inhalation (0.85% sodium chloride, 0.062% sodium citrate, 0.019% citric acid in water). If tested through a Next Generation Impactor at 15 LPM, the fine particle fraction of palonosetron <4.7 microns is anticipated to be >20%.
structure (smiles),measurement,value
O=C1c2cccc3c2[C@H](CCC3)CN1[C@@H]1CN2CCC1CC2 [palonosetron],fine particle fraction <4.7 microns,> 20%

# From US20160206610A1, “METHODS FOR TREATING AND/OR PREVENTING EMESIS AND/OR NAUSEA INCLUDING ACUTE AND/OR DELAYED NAUSEA AND/OR ACUTE EMESIS AND/OR DELAYED EMESIS” (priority 2015, published 2016)
